Series [1] concerns Gut Microbiota in HFD-Fed Mice. Kind of series: Gut microbiota classification by next generation sequencing (Example 4). It counts as in vivo, mouse. The method, then:
Total DNA was extracted from fresh fecal samples by using the innuPREP Stool DNA kit (Analytik Jena AG, Jena, Germany) according to the manufacturer's instructions. According to the concentration, DNA was diluted to 1 ng μ L^−1 using sterile water. 6SrRNA/18SrRNA/ITS genes of distinct region (16SV4/16SV3/16SV3-V4/16SV4-V5, 18S V4/18S V9, ITS1/ITS2, Arc V4) were amplified using a specific primer (e.g. 16SV4: 515F-806R, 18S V4: 528F-706R, and 18S V9: 1380F-1510R) with a barcode. All PCR reactions were carried out using a Phusion® High-Fidelity PCR master mix (New England Biolabs, Ipswich, Mass., USA). The PCR products were mixed in ratios of equal density. Then, the mixed PCR products were purified using a Qiagen gel extraction kit (Qiagen, Hilden, Germany). Sequencing libraries were generated using the TruSeq® DNA PCR-free sample preparation kit (Illumina, San Diego, Calif., USA) following the manufacturer's recommendations, and index codes were added. The library quality was assessed using the Qubit@ 2.0 Fluorometer (Thermo Scientific) and Agilent Bioanalyzer 2100 system. Lastly, the library was sequenced using an Illumina HiSeq 2500 platform, and 250 bp paired-end reads were generated. The classification was based on the Greengenes database (https://greengenes.lbl.gov/).

Series [2] relates to HFD-Induced Obese Mice (C57BL/6). Particulars: mouse, in vivo.
Procedure: (§1) Four-week-old, male C57BL/6 mice were purchased from the BioLASCO Experimental Animal Center (Taiwan Co., Ltd., Taipei, Taiwan) and housed in a controlled atmosphere (25±1° C. at 50% relative humidity) with a 12 h light/12 h dark cycle. After 1 week of acclimation, animals were randomly distributed into 6 groups as follows: normal diet (ND, 15% energy from fat), high-fat diet (HFD, 50% energy from lard-based fat), and HFD supplemented with 0.01% garcinol (GAR group), 0.025% Forskolin (FOR group), 0.005% GAR+0.025% FOR (LMIX group), and 0.01% Gar+0.025% For (HMIX group) for 12 weeks. […] Animals had free access to food and water. Food consumption was monitored daily and the body weight was recorded weekly. At the end of the experiments, all animals were sacrificed by CO2 asphyxiation. Blood samples were collected from the heart for biochemical analysis. The liver, spleen, kidney, fat pads (perigonadal, retroperitoneal, and mesenteric fat), and fresh fecal pellets were immediately removed and stored at −80° C. until further analysis.
(§2) Liver and the perigonadal adipose tissue were dissected and fixed in 10% buffered formalin for at least 24 h, dehydrated with a sequence of ethanol solutions, and processed for embedding in paraffin. Sections of 4 μm in thickness were cut, deparaffinized, rehydrated, stained with hematoxylin and eosin (H&E), and subjected to photo microscopic observation. Adipocyte size was measured at 100× magnification and determined by Image J software (U. S. National Institutes of Health, Bethesda, Md., USA).
Series [3] has the same test system. Nature of the series: GAR, FOR, LMIX, HMIX in HFD-induced obese mice, 12 weeks (Example 4).
Procedure: as §1, §2
Where [4] appears, read: 0.01% GAR, 0.025% FOR, LMIX, HMIX.

The record followed here is patent US20200030388A1, “COMPOSITIONS FOR MODIFYING GUT MICROBIOTA” (priority 2017, published 2020).

Several values for one entry are separate records, joined by “and”; a condition that tells them apart may be missing. Identical values can stand only once. Marks after values point to notes of the source that are not given here.

On to `C=C[C@@]1(C)CC(=O)[C@]2(O)[C@@]3(C)[C@@H](O)CCC(C)(C)[C@@H]3[C@H](O)[C@H](OC(C)=O)[C@@]2(C)O1` [FOR, Forskolin, reference compound], for which the “abundance of Firmicutes” value in series [1] (12 weeks (HFD group 43.0%)) was 33.5%. For the same molecule, the “abundance of Bacteroidetes” value in series [1] (12 weeks (HFD group 50.2%)) came out at 62.2%. Further, the “OTUs difference between ND and HFD groups (Venn diagram)” value in series [1] (12 weeks, FIG. 23A) came out at 34 OTUs. Also, in series [2], the Kidney is listed as 0.4 ± 0.02^a g and the Spleen is given as 0.06 ± 0.01^a g. In series [3] (setting [4]), the Final weight was 30.5 g and 30.5 ± 2.6^c g; the Weight gain is on record as 9.1 ± 1.8^c g. Further, the Liver in series [3] (organ weight) is given as 1.5 ± 0.2^bc g.
